Experimental data: the NIST ThermoML archive (doi:10.1016/j.jct.2004.12.014)

Key:
[1] = refractive index (Na D-line) (dimensionless); details: 318.15 K; 101.33 kPa; Liquid; Standard Abbe refractometry
[2] = 318.15 K; 101.33 kPa; Liquid
[3] = xn = mol fraction of the nth substance listed; details: 318.15 K, 101 kPa, Liquid
[4] = excess molar enthalpy (molar enthalpy of mixing); xn = mol fraction of the nth substance listed; details: 318.15 K, 101 kPa, Liquid

CCCCOC(=O)CC [butyl propanoate]
Details	mass density [kg/m3]	refractive index
[1]	–	1.3895
[2]	851.33	–

CCOC(=O)CC [ethyl propanoate]
Details	mass density [kg/m3]	refractive index
[1]	–	1.3711
[2]	860.98	–

CCC(=O)OC [methyl propanoate]
Details	mass density [kg/m3]	refractive index
[1]	–	1.3641
[2]	884.6	–

CCCCCOC(=O)CC [pentyl propanoate]
Details	mass density [kg/m3]
[2]	848.98

CCCOC(=O)CC [propyl propanoate]
Details	mass density [kg/m3]	refractive index
[1]	–	1.3809
[2]	854.57	–

CCCCCCCCCCCCC [tridecane] + CCOC(=O)CC
Details	excess molar enthalpy [kcal/mol]	excess molar volume [m3/mol]
[3], x2 = 0.0553	–	2.18e-07
[3], x2 = 0.1314	–	4.88e-07
[3], x2 = 0.2286	–	7.67e-07
[3], x2 = 0.3064	–	9.41e-07
[3], x2 = 0.3982	–	1.105e-06
[3], x2 = 0.4702	–	1.178e-06
[3], x2 = 0.5353	–	1.203e-06
[3], x2 = 0.6003	–	1.177e-06
[3], x2 = 0.6545	–	1.134e-06
[3], x2 = 0.7057	–	1.072e-06
[3], x2 = 0.7518	–	9.93e-07
[3], x2 = 0.7964	–	8.81e-07
[3], x2 = 0.8358	–	7.55e-07
[3], x2 = 0.8729	–	6.38e-07
[3], x2 = 0.9066	–	4.97e-07
[3], x2 = 0.9396	–	3.51e-07
[3], x2 = 0.9702	–	2.08e-07
[4], x2 = 0.0944	0.112	–
[4], x2 = 0.189	0.201	–
[4], x2 = 0.282	0.274	–
[4], x2 = 0.366	0.326	–
[4], x2 = 0.4354	0.355	–
[4], x2 = 0.4882	0.367	–
[4], x2 = 0.5339	0.372	–
[4], x2 = 0.5841	0.371	–
[4], x2 = 0.6332	0.361	–
[4], x2 = 0.6564	0.351	–
[4], x2 = 0.6775	0.343	–
[4], x2 = 0.6925	0.335	–
[4], x2 = 0.7364	0.306	–
[4], x2 = 0.7802	0.271	–
[4], x2 = 0.8254	0.228	–
[4], x2 = 0.8702	0.181	–
[4], x2 = 0.9163	0.127	–
[4], x2 = 0.9613	0.0636	–

CCCCCCCCCCC [undecane] + CCCOC(=O)CC
Details	excess molar enthalpy [kcal/mol]	excess molar volume [m3/mol]
[3], x2 = 0.0413	–	1.53e-07
[3], x2 = 0.0923	–	3.2e-07
[3], x2 = 0.1761	–	5.43e-07
[3], x2 = 0.2561	–	7.24e-07
[3], x2 = 0.3307	–	8.39e-07
[3], x2 = 0.3986	–	9.06e-07
[3], x2 = 0.4638	–	9.37e-07
[3], x2 = 0.5278	–	9.47e-07
[3], x2 = 0.587	–	9.43e-07
[3], x2 = 0.6412	–	8.99e-07
[3], x2 = 0.6944	–	8.36e-07
[3], x2 = 0.744	–	7.6e-07
[3], x2 = 0.7913	–	6.62e-07
[3], x2 = 0.8364	–	5.52e-07
[3], x2 = 0.8799	–	4.45e-07
[3], x2 = 0.9196	–	2.93e-07
[3], x2 = 0.9603	–	1.75e-07
[4], x2 = 0.0636	0.0667	–
[4], x2 = 0.1368	0.127	–
[4], x2 = 0.2052	0.179	–
[4], x2 = 0.2811	0.228	–
[4], x2 = 0.355	0.26	–
[4], x2 = 0.4208	0.276	–
[4], x2 = 0.4796	0.283	–
[4], x2 = 0.5347	0.283	–
[4], x2 = 0.5876	0.276	–
[4], x2 = 0.6318	0.264	–
[4], x2 = 0.6804	0.246	–
[4], x2 = 0.7305	0.219	–
[4], x2 = 0.7842	0.188	–
[4], x2 = 0.8388	0.149	–
[4], x2 = 0.8946	0.104	–
[4], x2 = 0.9488	0.0549	–

CCCCCCCCCCC [undecane] + CCOC(=O)CC
Details	excess molar enthalpy [kcal/mol]	excess molar volume [m3/mol]
[3], x2 = 0.0488	–	2.1e-07
[3], x2 = 0.1093	–	4.32e-07
[3], x2 = 0.1996	–	6.94e-07
[3], x2 = 0.2885	–	9.21e-07
[3], x2 = 0.3652	–	1.049e-06
[3], x2 = 0.4355	–	1.121e-06
[3], x2 = 0.5015	–	1.154e-06
[3], x2 = 0.5629	–	1.147e-06
[3], x2 = 0.621	–	1.119e-06
[3], x2 = 0.6752	–	1.071e-06
[3], x2 = 0.7242	–	9.82e-07
[3], x2 = 0.7714	–	8.93e-07
[3], x2 = 0.816	–	7.79e-07
[3], x2 = 0.8558	–	6.55e-07
[3], x2 = 0.895	–	5.1e-07
[3], x2 = 0.9301	–	3.49e-07
[3], x2 = 0.9671	–	2.01e-07
[4], x2 = 0.0755	0.0914	–
[4], x2 = 0.1612	0.168	–
[4], x2 = 0.2482	0.238	–
[4], x2 = 0.3331	0.29	–
[4], x2 = 0.4028	0.32	–
[4], x2 = 0.4629	0.336	–
[4], x2 = 0.5094	0.341	–
[4], x2 = 0.5483	0.34	–
[4], x2 = 0.5806	0.336	–
[4], x2 = 0.6255	0.325	–
[4], x2 = 0.6622	0.311	–
[4], x2 = 0.7018	0.292	–
[4], x2 = 0.7511	0.261	–
[4], x2 = 0.7996	0.225	–
[4], x2 = 0.8514	0.177	–
[4], x2 = 0.9026	0.125	–
[4], x2 = 0.9521	0.0667	–
